From PMC7767506, “Synthesis and Characterization of Store-Operated Calcium Entry Inhibitors Active in the Submicromolar Range” (International Journal of Molecular Sciences, 2020)

Test system: PHA-stimulated Jurkat cells
Assay: PHA-induced Ca2+ mobilization in Jurkat cells, Indo-1
Type: cell-based, human
Source text: Having shown that compound P11 was able to block the Jurkat cell SOCE, we next performed experiments using phytohemagglutinin (“PHA”). PHA is commonly used to cross-link the T cell receptor allowing the synthesis of IL-2 and thereafter the T cell activation. […] Noteworthy, PHA was able to induce a weak Ca^2+ release from internal stores (orange curve). […] However, after reaching a peak at 180 s, the [Ca^2+]cyt started to decay and decreased to a value beneath the [Ca^2+]cyt before cell stimulation.
In experiments with PHA, cells were placed in the cuvette, and 0.9 mM CaCl2 was added to reach a 1 mM extracellular concentration. Free Ca^2+ concentrations were calculated using the Bad4 software

Q: “2-(dibiphenyl-4-ylboryloxy)ethanamine [P11]” was tested. Which “PHA-induced Ca2+ release from internal stores” value (1 µM) did it give?
A: The value was “did not affect”.

Q: And the “PHA-induced Ca2+ mobilization” value (increasing [P11], 10 µg/mL PHA, 1 mM extracellular CaCl2)?
A: Its value is “largely inhibited”.
